Test results published in patent US11492335B2, “Aryl or heteroaryl triazolone derivatives or salts thereof, or pharmaceutical compositions comprising the same” (YUHAN CORPORATION, priority 2018, dated 2022).
Structures can show the parent of a compound that is named as a salt. Where two headings read alike, the source gives them in different places.

Tests used:
Assay type in all cases: biochemical
[1] = target: T1, recombinant human VAP-1 (Homo sapiens, UniProt Q16853); assay: Activity on recombinant human VAP-1, Amplex Red HRP-coupled hydrogen peroxide assay, benzylamine substrate; settings: recombinant human VAP-1, benzylamine substrate, read-out: Inhibitory Activity (IC50, nM) human VAP-1
T1 construct: purchased R&D systems
T1 sequence (Q16853 1-763): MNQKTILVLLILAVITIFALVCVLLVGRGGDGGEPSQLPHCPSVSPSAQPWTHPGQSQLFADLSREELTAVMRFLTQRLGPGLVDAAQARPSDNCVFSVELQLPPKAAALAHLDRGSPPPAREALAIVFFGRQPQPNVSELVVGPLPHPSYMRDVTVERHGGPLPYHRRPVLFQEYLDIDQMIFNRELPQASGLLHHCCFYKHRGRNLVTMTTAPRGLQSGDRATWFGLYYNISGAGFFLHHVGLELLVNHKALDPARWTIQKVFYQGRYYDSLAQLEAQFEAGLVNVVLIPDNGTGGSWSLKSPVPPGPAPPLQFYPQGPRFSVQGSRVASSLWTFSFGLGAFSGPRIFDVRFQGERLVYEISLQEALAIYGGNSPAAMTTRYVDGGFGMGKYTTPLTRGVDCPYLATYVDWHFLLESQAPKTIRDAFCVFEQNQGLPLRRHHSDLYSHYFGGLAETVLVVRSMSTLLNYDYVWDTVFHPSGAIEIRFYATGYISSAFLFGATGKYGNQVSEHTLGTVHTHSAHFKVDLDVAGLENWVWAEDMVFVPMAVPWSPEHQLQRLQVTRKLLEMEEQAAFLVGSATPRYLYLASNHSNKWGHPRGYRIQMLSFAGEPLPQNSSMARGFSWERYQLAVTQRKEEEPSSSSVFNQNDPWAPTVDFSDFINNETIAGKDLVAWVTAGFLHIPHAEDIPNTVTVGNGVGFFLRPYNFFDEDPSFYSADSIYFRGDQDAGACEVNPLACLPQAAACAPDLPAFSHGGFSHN
Method in brief: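 Compounds were preincubated with purified enzyme in 50 mM sodium phosphate pH 7.4 at 37 °C for 30 min, then 200 uM Amplex Red, 1 mM benzylamine and 1 U/mL HRP were added. Resorufin fluorescence (ex 544/em 590 nm) was followed over 1-2 h; IC50 came from 4-parameter fits of signal-rate inhibition.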

[2] = target: T2, recombinant human MAO-A (monoamine oxidase-A) (Homo sapiens, UniProt P21397); assay: Activity on recombinant human MAO-A, Amplex Red method, 0.5 mM tyramine substrate; settings: read-out: Inhibitory Activity (IC50, nM) MAO-A
T2 construct: purchased Sigma-Aldrich
T2 sequence (P21397 1-527): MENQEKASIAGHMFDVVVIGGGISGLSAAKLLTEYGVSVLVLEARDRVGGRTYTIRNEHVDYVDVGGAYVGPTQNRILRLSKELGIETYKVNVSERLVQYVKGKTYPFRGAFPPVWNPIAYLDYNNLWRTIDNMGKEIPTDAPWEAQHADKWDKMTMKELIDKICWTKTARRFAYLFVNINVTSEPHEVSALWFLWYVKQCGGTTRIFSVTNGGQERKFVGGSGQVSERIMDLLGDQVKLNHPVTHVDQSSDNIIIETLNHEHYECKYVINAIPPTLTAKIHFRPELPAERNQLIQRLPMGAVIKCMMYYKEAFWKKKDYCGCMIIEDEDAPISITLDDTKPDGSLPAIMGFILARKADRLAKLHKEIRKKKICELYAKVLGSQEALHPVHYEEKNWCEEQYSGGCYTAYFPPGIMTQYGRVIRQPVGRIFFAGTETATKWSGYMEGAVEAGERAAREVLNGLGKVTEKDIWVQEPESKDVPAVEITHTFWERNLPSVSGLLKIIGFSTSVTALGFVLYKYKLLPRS
Method in brief: (§1)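 8-point, 1:3 dose-response, four-parameter logistic IC50 from reduction in fluorescence rate versus DMSO control. HRP/Amplex Red detection of H2O2 (ex 544, em 590 nm) after 30 min, 37 °C compound–enzyme preincubation in pH 7.4 phosphate buffer. MAO-A substrate: 0.5 mM tyramine; MAO-B: 1 mM benzylamine.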

[3] = target: T3, recombinant human MAO-B (monoamine oxidase-B) (Homo sapiens, UniProt P27338); assay: Activity on recombinant human MAO-B, Amplex Red method, 1 mM benzylamine substrate; settings: read-out: Inhibitory Activity (IC50, nM) MAO-B
T3 construct: purchased Sigma-Aldrich
T3 sequence (P27338 1-520): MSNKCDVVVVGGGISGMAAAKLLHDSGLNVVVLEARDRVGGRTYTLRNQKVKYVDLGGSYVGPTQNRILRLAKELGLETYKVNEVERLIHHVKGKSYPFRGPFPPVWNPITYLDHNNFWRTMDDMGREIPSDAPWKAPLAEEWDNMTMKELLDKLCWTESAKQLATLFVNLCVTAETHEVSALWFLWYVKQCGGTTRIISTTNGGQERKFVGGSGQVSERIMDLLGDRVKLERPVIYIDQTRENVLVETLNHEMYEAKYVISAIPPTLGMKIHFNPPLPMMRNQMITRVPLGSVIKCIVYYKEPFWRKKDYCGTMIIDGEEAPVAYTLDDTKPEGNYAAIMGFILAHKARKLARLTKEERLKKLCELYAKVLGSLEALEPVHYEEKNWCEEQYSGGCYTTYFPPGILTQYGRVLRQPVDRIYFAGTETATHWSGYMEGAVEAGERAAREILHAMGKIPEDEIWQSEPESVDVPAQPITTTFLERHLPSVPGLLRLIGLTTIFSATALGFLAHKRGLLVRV
Method in brief: as §1

[4] = target: T4, recombinant human DAO (diamine oxidase) (Homo sapiens, UniProt P19801); assay: Activity on recombinant human DAO, Amplex Red method, 1 mM putrescine substrate; settings: recombinant human DAO, read-out: Inhibitory Activity (IC50, nM) DAO
T4 construct: purchased R&D systems
T4 sequence (P19801 20-751): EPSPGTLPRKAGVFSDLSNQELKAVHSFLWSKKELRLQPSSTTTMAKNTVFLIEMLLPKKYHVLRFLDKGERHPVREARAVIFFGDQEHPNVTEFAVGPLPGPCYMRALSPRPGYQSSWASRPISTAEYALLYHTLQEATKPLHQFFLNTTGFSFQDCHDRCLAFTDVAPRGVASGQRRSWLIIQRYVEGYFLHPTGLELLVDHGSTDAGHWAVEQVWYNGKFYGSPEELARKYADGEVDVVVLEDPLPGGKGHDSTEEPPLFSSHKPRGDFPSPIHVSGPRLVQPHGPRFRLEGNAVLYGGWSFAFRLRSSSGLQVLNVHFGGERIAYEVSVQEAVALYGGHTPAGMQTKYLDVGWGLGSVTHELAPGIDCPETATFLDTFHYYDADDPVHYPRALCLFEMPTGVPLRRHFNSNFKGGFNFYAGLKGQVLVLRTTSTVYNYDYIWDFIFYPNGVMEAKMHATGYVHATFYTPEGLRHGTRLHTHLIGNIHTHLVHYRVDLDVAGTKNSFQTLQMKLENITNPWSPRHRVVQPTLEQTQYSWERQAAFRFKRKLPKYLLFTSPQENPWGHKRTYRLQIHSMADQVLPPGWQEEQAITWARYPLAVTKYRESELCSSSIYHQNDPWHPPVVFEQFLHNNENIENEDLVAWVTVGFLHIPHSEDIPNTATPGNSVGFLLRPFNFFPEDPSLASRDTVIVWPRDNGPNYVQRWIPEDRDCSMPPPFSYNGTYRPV
Method in brief: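 Inhibition of recombinant human DAO (diamine oxidase, R&D systems) was assessed with the Amplex Red Hydrogen Peroxide Assay Kit. Hydrogen peroxide produced from 1 mM putrescine was detected through an HRP-coupled reaction that converts Amplex Red into fluorescent resorufin, read at 544 nm excitation and 590 nm emission. IC50 values came from four-parameter logistic fits in GraphPad Prism.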

[5] = 1 mM putrescine, * = between 10 and 100 nM, ** = between 300 and 1000 nM

IC50 ([1]; 30 min preincubation at 37° C.) [nM]	IC50 ([2]; 0.5 mM tyramine) [nM]	IC50 ([3]; 1 mM benzylamine) [nM]	IC50 [4, 5] [nM]	IC50 [1] [nM]	IC50 ([2]; 0.5 mM tyramine substrate) [nM]	IC50 ([3]; 1 mM benzylamine substrate) [nM]	IC50 ([4]; 1 mM putrescine substrate) [nM]	Structure (SMILES)
0.62	> 100000	196	< 100	–	–	–	–	NC/C(=C\F)Cn1ncn(-c2ccc(-c3ccc(-c4nnc[nH]4)cc3)cc2F)c1=O [Example 43, 2-[(2E)-2-(aminomethyl)-3-fluoroprop-2-en-1-yl]-4-[3-fluoro-4′-(4H-1,2,4-triazol-3-yl)biphenyl-4-yl]-2,4-dihydro-3H-1,2,4-triazol-3-one]
2.4	> 100000	2300	25	–	–	–	–	NC/C(=C\F)Cn1ncn(-c2ccc(Br)nc2)c1=O [Example 25, 2-[(2E)-2-(aminomethyl)-3-fluoroprop-2-en-1-yl]-4-(6-bromopyridin-3-yl)-2,4-dihydro-3H-1,2,4-triazol-3-one hydrochloride]
–	–	–	–	0.5	> 100000	> 10000	36	CN(C)c1ccc(C#Cc2cccc(-n3cnn(C/C(=C/F)CN)c3=O)n2)cn1 [Example 248, 2-[(E)-2-(aminomethyl)-3-fluoro-allyl]-4-[6-[2-[6-(dimethylamino)-3-pyridyl]ethynyl]-2-pyridyl]-1,2,4-triazol-3-one]
0.2	> 100000	> 10000	28	–	–	–	–	Cc1cc(-c2cccc(-n3cnn(C/C(=C/F)CN)c3=O)c2)cc2c1NC(=O)CC2 [Example 102, 6-(3-{1-[(2E)-2-(aminomethyl)-3-fluoroprop-2-en-1-yl]-5-oxo-1,5-dihydro-4H-1,2,4-triazol-4-yl}phenyl)-8-methyl-3,4-dihydroquinolin-2(1H)-one hydrochloride]
0.75	5100	> 10000	110	–	–	–	–	CC(=O)Nc1ccc(-c2cccc(-n3cnn(C/C(=C\F)CN)c3=O)c2)cc1 [Example 56, N-(3′-{1-[(2Z)-2-(aminomethyl)-3-fluoroprop-2-en-1-yl]-5-oxo-1,5-dihydro-4H-1,2,4-triazol-4-yl}biphenyl-4-yl)acetamide hydrochloride]
–	–	–	–	0.6	> 100000	23000	4	CN(C)c1ccc(-c2cccc(-n3cnn(C/C(=C/F)CN)c3=O)n2)cn1 [Example 188, 2-[(2E)-2-(aminomethyl)-3-fluoroprop-2-en-1-yl]-4-[6′-(dimethylamino)-2,3′-bipyridin-6-yl]-2,4-dihydro-3H-1,2,4-triazol-3-one hydrochloride]
–	–	–	–	1	> 100000	240	< 10	CC(C)c1nc(-c2ccc(-c3cc(-n4cnn(C/C(=C/F)CN)c4=O)ccn3)cc2)no1 [Example 205, 2-[(2E)-2-(aminomethyl)-3-fluoroprop-2-en-1-yl]-4-(2-{4-[5-(propan-2-yl)-1,2,4-oxadiazol-3-yl]phenyl}pyridin-4-yl)-2,4-dihydro-3H-1,2,4-triazol-3-one hydrochloride]
0.7	> 100000	456	< 100	–	–	–	–	Cc1cc(-c2ccc(-c3nc[nH]n3)cc2)ncc1-n1cnn(C/C(=C/F)CN)c1=O [Example 121, 2-[(2E)-2-(aminomethyl)-3-fluoroprop-2-en-1-yl]-4-{4-methyl-6-[4-(1H-1,2,4-triazol-3-yl)phenyl]pyridin-3-yl}-2,4-dihydro-3H-1,2,4-triazol-3-one]
–	–	–	–	0.2	> 100000	6100	20	NC/C(=C\F)Cn1ncn(-c2cccc(C#Cc3cnc4c(c3)OCC(=O)N4)n2)c1=O [Example 255, 7-[2-[6-[1-[(E)-2-(aminomethyl)-3-fluoro-allyl]-5-oxo-1,2,4-triazol-4-yl]-2-pyridyl]ethynyl]-4H-pyrido[3,2-b][1,4]oxazin-3-one]
2.5	> 100000	63	5.4	–	–	–	–	Cc1cc(-n2cnn(C/C(=C/F)CN)c2=O)cnc1Br [Example 27, 2-[(2E)-2-(aminomethyl)-3-fluoroprop-2-en-1-yl]-4-(6-bromo-5-methylpyridin-3-yl)-2,4-dihydro-3H-1,2,4-triazol-3-one hydrochloride]
1.5	200	12	209	–	–	–	–	NC/C(=C/F)Cn1ncn(-c2ccc(Br)cc2F)c1=O [Example 11, 2-[(2Z)-2-(aminomethyl)-3-fluoroprop-2-en-1-yl]-4-(4-bromo-2-fluorophenyl)-2,4-dihydro-3H-1,2,4-triazol-3-one hydrochloride]
1.3	68300	65	< 100	–	–	–	–	NC/C(=C\F)Cn1ncn(-c2ccc(-c3cccc(-c4nnc[nH]4)c3)cc2F)c1=O [Example 44, 2-[(2E)-2-(aminomethyl)-3-fluoroprop-2-en-1-yl]-4-[3-fluoro-3′-(4H-1,2,4-triazol-3-yl)biphenyl-4-yl]-2,4-dihydro-3H-1,2,4-triazol-3-one]
